Literature values as cited in patent publication US20120148541A1, “COMPOSITIONS AND METHODS TO GENERATE PILOSEBACEOUS UNITS” (priority 2010, published 2012).

Legend:
[1] = in published reports
[2] = DMSO

**Q.** For c1cc(-c2cnn3cc(-c4ccc(OCCN5CCCCC5)cc4)cnc23)ccn1 [Dorsomorphin, dorsomorphin], which toxicity [1] is on record?
**A.** low toxicity

**Q.** And the solubility [2]?
**A.** soluble in DMSO
